Each structure is given as a SMILES string.

The series in a line: gradient 5% acetonitrile 3 min, to 50% in 2 min, to 85% in 15 min, held 3 min, 100 µL/min. The note with it: column: Zorbax Extend-C18 2.1 x 50 mm; eluents: water / acetonitrile, 0.1% formic acid. An outline of the steps:
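Pure standards were run in mixtures of ~100 molecules by HPLC coupled to a quadrupole time-of-flight mass spectrometer. The column was a Zorbax Extend-C18 (2.1 × 50 mm, 1.8 μm) at 100 μL/min, with water and acetonitrile each containing 0.1% formic acid, in positive and negative ionization mode. Dead and dwell volumes were 40 μL and 900 μL. Retention time was taken from computationally picked adduct peaks, each manually inspected, with data collected over 3 months.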
Consider `CCCCc1ccc(NC(=O)CSc2cc(N3CCC(C(=O)NCC)CC3)ncn2)cc1`, for which the RP-LC retention time was 871 s. Under `CCS(=O)(=O)N1CC(=O)N(c2ccccc2C)C(C)(C(=O)NC2CCCCCCC2)C1` (centres undefined) stands 951 s. Under `COc1ccc(C(=O)N2CCC3(CC2)N=C(c2ccccc2)NO3)c(OC)c1` stands 755 s; under `Cc1nc(-c2cn(C)c3ncccc23)sc1C(=O)NCc1ccc(F)cc1Cl`, 990 s.

With `O=C(Cn1c(-c2cccnc2)nc2ccccc21)Nc1nccs1`, the RP-LC retention time is 628 s. To `CCN1CCN(CCNC(=O)c2sc3cc(Cl)ccc3c2OC)CC1` belongs 636 s; to `CNC(=O)N1CCC(C2CCN(C(=O)CCCC(=O)O)C2)CC1` (centres undefined), 572 s; to `Cc1ccc(-c2ccc(=O)n(CCc3nc(-c4ccc(F)cc4)no3)n2)cc1C`, 1100 s.

With `CCC1Oc2ccc(S(=O)(=O)N3CCC(C(=O)N(C)Cc4ccccc4)CC3)cc2NC1=O` (centres undefined), the RP-LC retention time was 872 s. `COCC(=O)N(CC(=O)N1CCc2sccc2C1COc1ccc(Cl)cc1)CC1CCCO1` (centres undefined) returned an RP-LC retention time of 871 s.

For the molecule `Cn1cc(-c2ccccc2)cc1C(=O)N1CCN(C2CCCCC2)CC1`, the RP-LC retention time was found to be 701 s. Under `Cc1ccccc1Cn1c(CN2CCC(C(=O)NCCCN3CCCC3)CC2)cc2ccccc21` stands 646 s; under `CCn1ncc(Cl)c1C(=O)N1CCCC1c1c(C)noc1C` (centres undefined), 734 s.

For the molecule `CN1CCCN(C(=O)Nc2ccc3c(c2)OCCO3)c2ccccc21`, the RP-LC retention time is 649 s.

In the case of `O=C(N[C@@H]1CN(Cc2ccc(Cl)cc2F)CC[C@@H]1CO)C1CC1`, the RP-LC retention time came to 598 s. The molecule `CC(NC(=O)c1ccccc1)c1nc(-c2ccc(NS(C)(=O)=O)cc2)no1` (centres undefined) displayed an RP-LC retention time of 766 s. To `COc1ccc(-n2c(=O)c(C(=O)NCc3ccco3)c(O)c3cccnc32)cc1` belongs 1050 s; to `CCC(C)NC(=O)c1cc(C)nc2ccc(F)cc12` (centres undefined), 680 s.

Turning to `C=C(C)Cn1c(C(C)(C)C)cn2c3c(=O)n(C)c(=O)n(C)c3nc12`, the RP-LC retention time came to 739 s.

Turning to `O=c1c2ccccc2c(-c2nc(-c3ccncc3)no2)cn1-c1cccc(F)c1`, the RP-LC retention time was found to be 1050 s. To `Cc1ccc(OCc2nn3c(-c4ccoc4C)nnc3s2)cc1` belongs 1010 s; to `Cc1ccc2c(c1)cc(S(=O)(=O)c1ccccc1)c(=O)n2CC(=O)NCc1ccccc1Cl`, 948 s; to `CC(Cc1ccco1)NC(=O)C1CCN(Cc2cc3ccccc3n2Cc2cccc(Cl)c2)CC1` (centres undefined), 821 s. Molecule `COCC(=O)N(C1CCOCC1)C1CCN(S(=O)(=O)c2ccc(F)c(F)c2)CC1` showed an RP-LC retention time of 788 s.

In turn, `CCCCNC(=O)C1CCN(Cc2cc3ccccc3n2Cc2cccc(C)c2)CC1` yielded an RP-LC retention time of 800 s.

As for `CCc1ccc(NC(=O)N2CCC(n3cnc4cc(Cl)ccc4c3=O)CC2)cc1`, the RP-LC retention time is 877 s. The molecule `O=C(c1ccc2c(c1)OCO2)N1CCN(c2nc(CN3CCOCC3)cs2)CC1` showed an RP-LC retention time of 596 s. To `CCN(CC)c1ncc2c(n1)CCC(C(=O)N1CCN(c3ccc(C)cc3)CC1)C2` (centres undefined) belongs 793 s; to `c1ccc(CN2CCN(Cc3cnoc3-c3ccccc3)CC2)cc1`, 689 s; to `COC(=O)C1=CN(c2cccc(SC)c2)c2cc(F)ccc2S1(=O)=O`, 925 s. Under `COc1ccc(-c2cn3c(CC(=O)N4CCN(c5ccccn5)CC4)csc3n2)cc1OC` stands 1030 s; under `O=S(=O)(c1ccc(Cl)cc1)N1CCC(c2nc(-c3ccccn3)no2)CC1`, 940 s; under `CCOc1ccc(OCC)c(NC(=O)Cc2csc3nc(-c4ccc(OC)c(OC)c4)cn23)c1`, 870 s. Under `COc1ccc(-c2noc(Cc3nnc(-c4cccc(Cl)c4)o3)n2)cc1` stands 1070 s; under `CCn1c(N2CCCC(C(=O)NCCCOC)C2)cc(=O)n(C)c1=O` (centres undefined), 665 s. `Cc1cc2c(cc1CNC(=O)c1ccco1)OCCCO2` registered an RP-LC retention time of 750 s. The molecule `CCC(NC(=O)c1ccc2c(c1)nc1n2CCN(Cc2ccccc2)C1=O)c1cccs1` (centres undefined) gave an RP-LC retention time of 836 s. To `CCOC(=O)c1[nH]c(C)c(CCC(=O)N2CCC(C(=O)NCc3ccc(C)cc3)CC2)c1C` belongs 826 s; to `COC(=O)C(C)Sc1nc2c(c(=O)n1-c1ccc(OC(F)(F)F)cc1)SCC2` (centres undefined), 949 s. To `CCOC(=O)C1=C(C)NC2=C(C(=O)C(C(=O)OC)C(C)C2)C1c1ccccc1OC` (centres undefined) belongs 849 s; to `O=C(C1=CN(c2ccc3c(c2)OCCO3)c2cc(F)ccc2S1(=O)=O)N1CCOCC1`, 750 s. For `CN(Cc1cccs1)C(=O)NC(C)(C)C`, the RP-LC retention time was found to be 817 s.

In turn, `CN(C)CCNC(=O)C1CCCN(c2ccc(Sc3ccc(Br)cc3)nn2)C1` (centres undefined) displayed an RP-LC retention time of 648 s. In the case of `COC(=O)c1cn(CC(=O)Nc2cc(Cl)ccc2OC)c2nc(C)ccc2c1=O`, the RP-LC retention time came to 780 s. To `CC(C)C(=O)Nc1ccc(-c2nc(-c3ccc(Cl)cc3)no2)cc1` belongs 1200 s. `CC1CCC2(CC1)NC(=O)N(CC(=O)NCCCc1ccccc1)C2=O` (centres undefined) displayed an RP-LC retention time of 832 s. To `CCOC(=O)CNC(=O)NCCc1nc2cccnc2n1Cc1ccccc1` belongs 648 s; to `COc1ccc2[nH]cc(CCNC(=O)c3cnn(-c4ccc(Cl)cc4)c3C3CCNCC3)c2c1`, 694 s; to `Cc1ccc(CC(=O)N2CCC(COc3ccc(C(=O)NC4CC4)cc3)CC2)cc1`, 856 s. Under `O=C(NC1CCN(Cc2ccccc2)CC1)c1cc2n(n1)CCCN(Cc1ccccc1)C2=O` stands 640 s; under `Cc1cc(C)cc(NS(=O)(=O)c2cc3c(s2)CCN(C(=O)C2CCC2)C3)c1`, 962 s. To `COc1ccc(-c2csc(Nc3cccnc3)n2)cc1OC` belongs 620 s; to `COc1ccc(-n2ccn(CC(=O)Nc3ccc(Br)cc3)c(=O)c2=O)cc1`, 728 s. Take `O=C(NCc1cccc(C(F)(F)F)c1)C1CCCN(c2nccnc2Oc2ccccc2)C1` (centres undefined): the RP-LC retention time came to 1040 s. In turn, `COc1cccc(Cn2cc(S(=O)(=O)N3CCCC3)ccc2=O)c1` showed an RP-LC retention time of 779 s. `CCCSCCCNC(=O)C1CCCN(c2nc3ccccc3n(Cc3ccccc3)c2=O)C1` (centres undefined): the RP-LC retention time stood at 1200 s. Under `Cn1c(N2CCCC(C(=O)NCc3ccc4c(c3)OCO4)C2)cc(=O)n(C)c1=O` (centres undefined) stands 671 s; under `O=C(Cn1cc(-c2ccccc2)c2ncn(C3CC3)c(=O)c21)NCc1ccc2c(c1)OCO2`, 852 s; under `COCC(=O)NC1CCC12CCN(C(=O)c1ccco1)CC2` (centres undefined), 648 s. The molecule `CN(CC1CCOC1)C(=O)c1cc(F)ccc1Cl` (centres undefined) had an RP-LC retention time of 704 s. Molecule `O=C(NCCc1ccccc1)N1CCC(OC2CCN(Cc3ccccc3)CC2)CC1` registered an RP-LC retention time of 652 s. Consider `CN(C)C(CNC(=O)c1cc(=O)c2cc(Cl)ccc2o1)c1cccs1` (centres undefined), for which the RP-LC retention time came to 631 s. To `Cc1ccc(CNC(=O)c2ccc3c(c2)Sc2ncccc2C(=O)N3C)cc1` belongs 796 s; to `CCCCN(C)C(=O)Cn1c(CNC(=O)c2ccco2)nc2ccccc21`, 629 s; to `CCC(=O)NCc1nc2c(n1CC)CN(C(=O)c1ccc(C(F)(F)F)s1)CC2`, 579 s. On to `COc1ccc(NC(=O)Nc2ccc(-c3cn4ccc(C)nc4n3)cc2)cc1`, for which the RP-LC retention time worked out at 626 s. Under `CC(C)(C)NS(=O)(=O)c1cc(-c2nnc(-c3ccccc3)o2)ccc1F` stands 985 s; under `O=C(NCc1c[nH]c2ncccc12)C1CCC1`, 558 s; under `CN(c1nc(-c2ccc([N+](=O)[O-])cc2)nc2ccccc12)C1CCCCC1`, 993 s. Turning to `COc1ccc2c(c1)c(CN1CCC(C(=O)NCCc3ccco3)CC1)cn2C`, the RP-LC retention time was 671 s. As to `COc1ccc(N2CC(c3nc(-c4ccccc4Cl)no3)CC2=O)cc1` (centres undefined), the RP-LC retention time was determined as 926 s. `COc1cccc(-c2ccc(=O)n(Cc3nc(-c4cccc(Cl)c4)no3)n2)c1` registered an RP-LC retention time of 1080 s. Consider `COc1ccc(-c2nc(Cn3ccn4nc(-c5ccccc5)cc4c3=O)c(C)o2)c(OC)c1`, for which the RP-LC retention time turned out to be 1030 s. With `COCCNC(=O)C1CCN(c2nc3ccc(-c4ccc(F)cc4)nc3s2)CC1`, the RP-LC retention time amounted to 835 s. In turn, `O=C(NCCCN1CCCc2ccccc21)C1CCc2nc(N3CCCCC3)ncc2C1` (centres undefined) came in with an RP-LC retention time of 827 s. To `COc1ccc2c(c1)-c1nc(NC(=O)c3ccc(C)cc3)sc1CC2` belongs 1170 s; to `COc1ccc(NC(=O)C2CCN(S(=O)(=O)c3cc(C(=O)N4CCOCC4)cs3)CC2)cc1`, 721 s. To `Nc1c(C(=O)NCC2CCCO2)c2nc3ccccc3nc2n1C1CCCC1` (centres undefined) belongs 1070 s.

`Cn1cc(CCN2CCC(C(=O)NCc3ccccc3F)CC2)c2cccnc21` had an RP-LC retention time of 595 s.

Source of the values: the METLIN SMRT retention time set (Domingo-Almenara et al. 2019).
